What was measured:
Conditions in all cases: 72 h
Caco-2 [1] = test: drug sensitivity score (DSS) for viability; higher = more toxic; extreme values may be limits of the assay
Calu-3 [2] = test: as above
Vero E6 [3] = test: as above
HepG2 [4] = test: as above
U2OS [5] = test: as above
Caco-2 [6] = test: cell viability relative to DMSO; higher = less toxic
Calu-3 [7] = test: as above
Vero E6 [8] = test: as above
HepG2 [9] = test: as above
U2OS [10] = test: as above
Caco-2 [11] = test: relative viability EC50 (midpoint between 100% and the lowest measured viability); higher = less toxic
Calu-3 [12] = test: as above
Vero E6 [13] = test: as above
HepG2 [14] = test: as above
U2OS [15] = test: as above

Structure (SMILES)	drug sensitivity score (Caco-2 [1])	drug sensitivity score (Calu-3 [2])	drug sensitivity score (Vero E6 [3])	drug sensitivity score (HepG2 [4])	drug sensitivity score (U2OS [5])	cell viability (Caco-2 [6]; 1 nM) [%]	cell viability (Caco-2 [6]; 10 nM) [%]	cell viability (Caco-2 [6]; 100 nM) [%]	cell viability (Caco-2 [6]; 1000 nM) [%]	cell viability (Caco-2 [6]; 10000 nM) [%]	cell viability (Calu-3 [7]; 1 nM) [%]	cell viability (Calu-3 [7]; 10 nM) [%]	cell viability (Calu-3 [7]; 100 nM) [%]	cell viability (Calu-3 [7]; 1000 nM) [%]	cell viability (Calu-3 [7]; 10000 nM) [%]	cell viability (Vero E6 [8]; 1 nM) [%]	cell viability (Vero E6 [8]; 10 nM) [%]	cell viability (Vero E6 [8]; 100 nM) [%]	cell viability (Vero E6 [8]; 1000 nM) [%]	cell viability (Vero E6 [8]; 10000 nM) [%]	cell viability (HepG2 [9]; 1 nM) [%]	cell viability (HepG2 [9]; 10 nM) [%]	cell viability (HepG2 [9]; 100 nM) [%]	cell viability (HepG2 [9]; 1000 nM) [%]	cell viability (HepG2 [9]; 10000 nM) [%]	cell viability (U2OS [10]; 1 nM) [%]	cell viability (U2OS [10]; 10 nM) [%]	cell viability (U2OS [10]; 100 nM) [%]	cell viability (U2OS [10]; 1000 nM) [%]	cell viability (U2OS [10]; 10000 nM) [%]	relative viability EC50 (Caco-2 [11]) [µM]	relative viability EC50 (Calu-3 [12]) [µM]	relative viability EC50 (Vero E6 [13]) [µM]	relative viability EC50 (HepG2 [14]) [µM]	relative viability EC50 (U2OS [15]) [µM]
COc1cc(C#N)ccc1S(=O)(=O)Nc1ccc2c(c1)cc(C)c(=O)n2C [NI-57]	0.6	0	0	0.7	0	99.1	97.4	94.8	91.1	83.5	98.7	110	101	101	104	98.7	103	99.6	95.7	96	106	114	102	94.1	85.3	101	98.2	101	98.5	98.9	> 10	> 10	> 10	> 10	> 10
COc1cn(-c2ccc(-n3cccn3)cc2F)nc(-c2ccnn2-c2ccccc2)c1=O [TAK-063]	0	0	0	0	0	88.1	95.7	91.1	97.4	105	92.1	95.4	98.8	102	109	91.7	97.3	103	90	104	99.7	95.5	102	105	106	97.3	99.6	97.1	101	102	> 10	> 10	> 10	> 10	> 10
O=C1C(CC[S+]([O-])c2ccccc2)C(=O)N(c2ccccc2)N1c1ccccc1 (stereo not given) [sulfinpyrazone]	0	0	0	0	0	102	103	98.5	99.8	90.5	93.2	98	98.9	94	105	106	103	100	97.1	103	109	115	110	97.7	110	97.5	102	104	102	102	> 10	> 10	> 10	> 10	> 10

Reference: the supplement of paper PMC13380429
